Literature values, collected in paper PMC7761830, “Structure-Based Virtual Screening of Ultra-Large Library Yields Potent Antagonists for a Lipid GPCR” (Biomolecules, 2020).

Test system: CysLT1R
Conditions: CysLT1R; ChEMBL value; ref 29 (ChEMBL); cited from earlier work

Structure (SMILES)	pAct
O=C(O)CCCN1CC(c2nnn[nH]2)Oc2c(C=Cc3ccc(OCCCCc4ccccc4)cc3)cccc21 (stereo not shown) [CHEMBL3403186, C(CCOc1ccc(C=Cc2cccc3c2OC(CN3CCCC(O)=O)c2nnn[nH]2)cc1)Cc1ccccc1]	9.2
COc1cc(C(=O)NS(=O)(=O)c2ccccc2C)ccc1Cc1cn(C)c2ccc(NC(=O)OC3CCCC3)cc12 [CHEMBL603, Cc1ccccc1S(NC(c1ccc(Cc2cn(C)c3ccc(cc23)NC(=O)OC2CCCC2)c(c1)OC)=O)(=O)=O]	11.4
CC(C)(O)c1ccc(CC[C@@H](SCC2(CC(=O)O)CC2)c2cccc(C=Cc3ccc4sc(Cl)c(Cl)c4n3)c2)cc1 [CHEMBL313187, CC(C)(c1ccc(CC[C@H](c2cccc(C=Cc3ccc4c(c(c(s4)[Cl])[Cl])n3)c2)SCC2(CC2)CC(O)=O)cc1)O]	9.4
COc1cccc2c(C=CC(=O)Nc3cccc(C=Cc4ccc5ccc(Cl)cc5n4)c3)c(C(=O)O)[nH]c12 [CHEMBL3810210, COc1cccc2c(C=CC(Nc3cccc(C=Cc4ccc5ccc(cc5n4)[Cl])c3)=O)c(C(O)=O)[nH]c12]	8.2
Cc1c(Cl)cccc1CCCCOc1ccc(C#Cc2cccc3c(CCCC(=O)O)c(C)n(CC(=O)O)c23)cc1 [CHEMBL3597618, Cc1c(CCCCOc2ccc(C#Cc3cccc4c(CCCC(O)=O)c(C)n(CC(O)=O)c34)cc2)cccc1[Cl]]	9.7
O=C(Nc1ccc2ccc(OCc3ccc4ccccc4n3)cc2c1)OCc1ccc(C(=O)O)cc1 [CHEMBL132167, C(c1ccc(cc1)C(O)=O)OC(Nc1ccc2ccc(cc2c1)OCc1ccc2ccccc2n1)=O]	8.0
O=C(O)c1cc(Cl)cc2c(=O)cc(-c3cccc(C=Cc4ccc5ccccc5n4)c3)oc12 [CHEMBL416769, C(=Cc1ccc2ccccc2n1)c1cccc(c1)C1=CC(c2cc(cc(C(O)=O)c2O1)[Cl])=O]	8.0
CC(C)(O)c1ccccc1CC[C@@H](SCC1(CC(=O)O)CC1)c1cccc(C=Cc2ccc3c(n2)CCS3)c1 [CHEMBL140058, CC(C)(c1ccccc1CC[C@H](c1cccc(C=Cc2ccc3c(CCS3)n2)c1)SCC1(CC1)CC(O)=O)O]	8.5
O=C(Nc1cccc2c(=O)cc(-c3nn[nH]n3)oc12)c1ccc(OCCCCc2ccccc2)cc1 [CHEMBL21333, C(CCOc1ccc(cc1)C(Nc1cccc2C(C=C(c3nn[nH]n3)Oc12)=O)=O)Cc1ccccc1]	9.1
CN(C)C(=O)CCS[C@H](SCCC(=O)O)c1cccc(C=Cc2ccc3ccc(Cl)cc3n2)c1.[Na] [CHEMBL89340, CN(C)C(CCS[C@@H](c1cccc(C=Cc2ccc3ccc(cc3n2)[Cl])c1)SCCC(O)=O)=O.[Na]]	8.5
CCCC(CCc1nnn[nH]1)Cc1ccc(OCc2ccc3ccccc3n2)cc1 (stereo not shown) [CHEMBL97356, CCCC(CCc1nnn[nH]1)Cc1ccc(cc1)OCc1ccc2ccccc2n1]	8.0

Same assay, conditions: activity of the ligand from ChEMBL; ref ChEMBL; read-out: IC50 (CysLT1); cited from earlier work

Structure (SMILES)	IC50 [nM]
O=C(O)c1[nH]c2ccccc2c1C(=O)Nc1cccc(/C=C/c2ccc3ccc(Cl)cc3n2)c1 [CHEMBL3809164]	35

Same assay, conditions: activity of the ligand from ChEMBL; ref ChEMBL; read-out: Kd (CysLT1); cited from earlier work

Structure (SMILES)	Kd [nM]
COc1cc(C(=O)NS(=O)(=O)c2ccccc2C)ccc1Cc1cn(C)c2ccc(NC(=O)NC3CCCC3)cc12 [CHEMBL431348]	0.79

Test system: CysLT2R
Conditions: CysLT2R; ChEMBL value; ref 29 (ChEMBL); cited from earlier work

Structure (SMILES)	pAct
O=C(O)CCCc1cn(CC(=O)O)c2c(C=Cc3ccc(OCCCCOc4ccccc4)cc3)cccc12 [CHEMBL3597522, C(CC(O)=O)Cc1cn(CC(O)=O)c2c(C=Cc3ccc(cc3)OCCCCOc3ccccc3)cccc12]	8.2
O=C(O)CCCN1CC(c2nn[nH]n2)Oc2c(NC(=O)c3ccc(OCCCCc4ccccc4)cc3)cccc21 (stereo not shown) [CHEMBL3401689, C(CCOc1ccc(cc1)C(Nc1cccc2c1OC(CN2CCCC(O)=O)c1nn[nH]n1)=O)Cc1ccccc1]	9.3
O=C(O)CCCN1CC(c2nnn[nH]2)Oc2c(C=Cc3ccc(OCCCCc4ccccc4)cc3)cccc21 (stereo not shown) [CHEMBL3403186, C(CCOc1ccc(C=Cc2cccc3c2OC(CN3CCCC(O)=O)c2nnn[nH]2)cc1)Cc1ccccc1]	8.5
O=C(O)CCCN1C[C@@H](C(=O)O)Oc2c(NC(=O)c3ccc(OCCCCc4ccccc4)cc3)cccc21 [CHEMBL3342964, C(CCOc1ccc(cc1)C(Nc1cccc2c1O[C@@H](CN2CCCC(O)=O)C(O)=O)=O)Cc1ccccc1]	9.1
O=C(O)CCCN1CC(C(=O)O)Oc2c(C=Cc3ccc(OCCCCc4ccccc4)cc3)cccc21 (stereo not shown) [CHEMBL3401687, C(CCOc1ccc(C=Cc2cccc3c2OC(CN3CCCC(O)=O)C(O)=O)cc1)Cc1ccccc1]	8.2
O=C(O)CCCN1CC(C(=O)NS(=O)(=O)c2ccccc2)Oc2c(NC(=O)c3ccc(OCCCCc4ccccc4)cc3)cccc21 (stereo not shown) [CHEMBL3401691, C(CCOc1ccc(cc1)C(Nc1cccc2c1OC(CN2CCCC(O)=O)C(NS(c1ccccc1)(=O)=O)=O)=O)Cc1ccccc1]	8.2
O=C(O)CCCN1CC(C(=O)O)Oc2c(NC(=O)c3ccc(OCCCCCc4ccccc4)cc3)cccc21 (stereo not shown) [CHEMBL3342959, C(CCc1ccccc1)CCOc1ccc(cc1)C(Nc1cccc2c1OC(CN2CCCC(O)=O)C(O)=O)=O]	9.2
O=C(O)CCCN1CC(C(=O)O)Oc2c(C=Cc3ccc(OCCCCOc4ccccc4)cc3)cccc21 (stereo not shown) [CHEMBL3403187, C(CC(O)=O)CN1CC(C(O)=O)Oc2c(C=Cc3ccc(cc3)OCCCCOc3ccccc3)cccc12]	9.5

Same assay, conditions: activity of the ligand from ChEMBL; ref ChEMBL; read-out: IC50 (CysLT2); cited from earlier work

Structure (SMILES)	IC50 [nM]
O=C(O)c1ccc(OCCCc2ccc(OCCCCOc3ccccc3)cc2)c(C(=O)NC2CCCC(C(=O)O)C2)c1 (stereo not shown) [CHEMBL3342945]	53
